Source: PubChem BioAssay AID1963980 (Molecular Pharmacology Branch, DTP, NCI, 2024)
Several values for one entry are separate records, joined by “and”; a condition that tells them apart may be missing. Identical values can stand only once.

Test system: 475296-252-R-J1-PDC spheroid viability
Test: Anticancer human tumor 475296-252-R-J1-PDC patient-derived rectal carcinoma cell line growth inhibition [PI3K]
Settings: spheroids with HUVEC and MSC; for viability, T/C: stronger effect = lower value
Description: Combinatorial screen of targeted agents with the PI3K inhibitors inavolisib, alpelisib, duvelisib, and copanlisib in multi-cell type tumor spheroids
A high-throughput screen of multi-cell type tumor spheroids was designed to identify active combinations of targeted small molecules and PI3K pathway inhibitors. Complex spheroids include a stromal component modeled by human endothelial cells (HUVEC) and fibroblasts modeled by human mesenchymal stem cells (MSCs). The concentration ranges selected for each drug and investigational agent were based upon clinically achievable concentrations if the clinical Cmax of the agent was known.
Compounds. The drugs and investigational agents: inavolisib (NSC800729), alpelisib (NSC765974), duvelisib (NSC772469), copanlisib (NSC816437), ipatasertib (NSC767898), afuresertib (NSC778305), talazoparib (NSC767125), sapanisertib (NSC764658), selumetinib (NSC741078), tovorafenib (DAY101, NSC766906), vemurafenib (NSC761431), ravoxertinib (NSC781343), sotorasib (NSC818433), MRTX1133 (NSC 836407), abemaciclib (NSC 768073), palbociclib (NSC758247), venetoclax (NSC 766270), SY5609 (NSC837396), enzalutamide (NSC755605), and darolutamide (NSC825331), were obtained from the National Cancer Institute (NCI) Developmental Therapeutics Program Chemical Repository. The FDA-approved anticancer drug set is available from the NCI Developmental Therapeutics Program. […] The stock solutions were prepared in dimethyl sulfoxide (DMSO, Sigma-Aldrich, St. Louis, MO, cat. D2650) at 800-fold the tested concentration and stored at -70 degrees C prior to their use. All drugs and investigational agents were tested over a range starting from a high concentration at or near the clinical Cmax and decreasing in half-log increments. If the clinical Cmax for an agent had not been determined, the highest concentration tested was 10 microM.
Cell Culture. All cells were maintained in an incubator at 37 degrees C and 5% CO2 with 95% humidity. The PDC lines were cultured according to standard operating procedures established by the NCI PDMR (https://pdmr.cancer.gov/sops/default.htm). All PDCs were thawed and cultured in Matrigel-coated flasks prepared with a working solution of 1X Ham's F-12 nutrient mix, without supplementation (Invitrogen, Waltham, MA, cat. 11765054), 100 U/mL penicillin-streptomycin (Invitrogen, cat. 15140122), and 2.5% Matrigel (Corning Inc., Corning, NY, cat. 354248) for the first three passages. The 354836-022-R-J1-PDC, 475296-252-R-J1-PDC, and 997726-040-R-J2-PDC lines were cultured in 6A media, which includes advanced DMEM/F-12 (Thermo Fisher Scientific, cat. 12634028), 10 mM HEPES (Thermo Fisher Scientific, cat. 15630080), 1X GlutaMAX supplement (Thermo Fisher Scientific, cat. 35050061), 0.1 mg/mL primocin (InvivoGen, San Diego, CA, cat. ant-pm-2), 10% defined fetal bovine serum, heat inactivated (HyClone Laboratories Inc., Logan, UT, cat. SH30070.03HI), 50% L-WRN conditioned media (ATCC, cat. CRL-3276), 1.25 mM N-Acetyl-L-cysteine (Sigma-Aldrich, cat. A9165), 10 mM nicotinamide (Sigma-Aldrich, cat. N0636), 1X B-27 supplement (Thermo Fisher Scientific, cat. 17504044), 1X N-2 supplement (Thermo Fisher Scientific, cat. 17502048), and 10 microM Y-27632 dihydrochloride (Tocris Bioscience, Bristol, United Kingdom, cat. 1254). The 624824-186-R-J2-PDC line was cultured in 6C/Colon 1B media, which includes all 6A media components plus 50 ng/mL human EGF recombinant protein (Thermo Fisher Scientific, cat. PHG0311). […]
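Also: spheroids exposed to agents for seven days before readout.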

C#Cc1c(F)ccc2cc(O)cc(-c3ncc4c(N5CC6CCC(C5)N6)nc(OCC56CCCN5CC(F)C6)nc4c3F)c12 (stereo not given)
viability, T/C (compound 0.0316 µM): 95.9% [middle of 4 runs]
viability, T/C (compound 0.1 µM): 90.9% [middle of 4 runs]
viability, T/C (compound 0.316 µM): 84.4% [middle of 4 runs]
viability, T/C (compound 1 µM): 70.1% [middle of 4 runs]
viability, T/C (compound 10 µM): 56.8% [middle of 4 runs]
IC50 (curve of compound): 8.36 µM and > 10 µM

C=CC(=O)N1CCN(c2nc(=O)n(-c3c(C)ccnc3C(C)C)c3nc(-c4c(O)cccc4F)c(F)cc23)C(C)C1 (stereo not given)
viability, T/C (compound 0.1 µM): 98.7% [middle of 4 runs]
viability, T/C (compound 0.316 µM): 97% [middle of 4 runs]
viability, T/C (compound 1 µM): 105% [middle of 4 runs]
viability, T/C (compound 3.16 µM): 110% [middle of 4 runs]
viability, T/C (compound 10 µM): 110% [middle of 4 runs]
IC50 (curve of compound): > 10 µM

CNC(=O)c1ccc(N2C(=S)N(c3ccc(C#N)c(C(F)(F)F)c3)C(=O)C2(C)C)cc1F
viability, T/C (compound 0.1 µM): 100% [middle of 4 runs]
viability, T/C (compound 0.316 µM): 96.5% [middle of 4 runs]
viability, T/C (compound 1 µM): 99.5% [middle of 4 runs]
viability, T/C (compound 3.16 µM): 102% [middle of 4 runs]
viability, T/C (compound 10 µM): 98.3% [middle of 4 runs]
IC50 (curve of compound): > 10 µM

Cn1cnc2c(F)c(Nc3ccc(Br)cc3Cl)c(C(=O)NOCCO)cc21 + CC(Nc1ccc2c(c1)OCCn1cc(N3C(=O)OCC3C(F)F)nc1-2)C(N)=O
IC50 (curve of first compound, second compound 0.00316 µM): > 3 µM
IC50 (curve of first compound, second compound 0.01 µM): > 3 µM
IC50 (curve of first compound, second compound 0.0316 µM): > 3 µM
IC50 (curve of first compound, second compound 0.1 µM): 1.21 µM
IC50 (curve of first compound, second compound 0.316 µM): 0.415 µM
IC50 (curve of first compound, second compound 1 µM): 0.142 µM
viability, T/C (second compound 0.00316 µM, first compound 0.00949 µM): 96.4%
viability, T/C (second compound 0.00316 µM, first compound 0.03 µM): 93.1%
viability, T/C (second compound 0.00316 µM, first compound 0.0949 µM): 89%
viability, T/C (second compound 0.00316 µM, first compound 0.3 µM): 74.8%
viability, T/C (second compound 0.00316 µM, first compound 0.949 µM): 74.8%
viability, T/C (second compound 0.00316 µM, first compound 3 µM): 60.8%
viability, T/C (second compound 0.01 µM, first compound 0.00949 µM): 104%
viability, T/C (second compound 0.01 µM, first compound 0.03 µM): 90.9%
viability, T/C (second compound 0.01 µM, first compound 0.0949 µM): 90.4%
viability, T/C (second compound 0.01 µM, first compound 0.3 µM): 65.2%
viability, T/C (second compound 0.01 µM, first compound 0.949 µM): 72.8%
viability, T/C (second compound 0.01 µM, first compound 3 µM): 61.4%
viability, T/C (second compound 0.0316 µM, first compound 0.00949 µM): 95.4%
viability, T/C (second compound 0.0316 µM, first compound 0.03 µM): 96%
viability, T/C (second compound 0.0316 µM, first compound 0.0949 µM): 84.8%
viability, T/C (second compound 0.0316 µM, first compound 0.3 µM): 77.3%
viability, T/C (second compound 0.0316 µM, first compound 0.949 µM): 67.8%
viability, T/C (second compound 0.0316 µM, first compound 3 µM): 52.3%
viability, T/C (second compound 0.1 µM, first compound 0.00949 µM): 78.8%
viability, T/C (second compound 0.1 µM, first compound 0.03 µM): 82.9%
viability, T/C (second compound 0.1 µM, first compound 0.0949 µM): 71.5%
viability, T/C (second compound 0.1 µM, first compound 0.3 µM): 65%
viability, T/C (second compound 0.1 µM, first compound 0.949 µM): 53%
viability, T/C (second compound 0.1 µM, first compound 3 µM): 40.4%
viability, T/C (second compound 0.316 µM, first compound 0.00949 µM): 76.5%
viability, T/C (second compound 0.316 µM, first compound 0.03 µM): 89.5%
viability, T/C (second compound 0.316 µM, first compound 0.0949 µM): 66%
viability, T/C (second compound 0.316 µM, first compound 0.3 µM): 54.8%
viability, T/C (second compound 0.316 µM, first compound 0.949 µM): 38.7%
viability, T/C (second compound 0.316 µM, first compound 3 µM): 23.6%
viability, T/C (second compound 1 µM, first compound 0.00949 µM): 84.5%
viability, T/C (second compound 1 µM, first compound 0.03 µM): 70.2%
viability, T/C (second compound 1 µM, first compound 0.0949 µM): 57%
viability, T/C (second compound 1 µM, first compound 0.3 µM): 38.4%
viability, T/C (second compound 1 µM, first compound 0.949 µM): 25.4%
viability, T/C (second compound 1 µM, first compound 3 µM): 13.5%
